According to PubChem BioAssay AID179 (DTP/NCI, 2004):
Where “and” joins values, the source holds several entries; their conditions need not be identical. Equal entries are not always repeated. Calls of active or inactive are those of the source.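 Rule for the calls: active = compounds giving half or more protection of infected cells from virus-caused growth loss, again on retest; inactive = the rest.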 Where a SMILES comes first, the peptide text is derived from it. Bridges are numbered along the chain shown (N, C = ends). Roman numbers before positions name the chains, in order.

Test system: CEM cells HIV-1 protection, formazan growth assay
Assay: NCI AIDS Antiviral Assay
Settings: for IC50: measured here: growth of uninfected CEM cells
Summary of the method: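 Soluble formazan readout of cell growth; CEM cells ± HIV-1; 5 drug concs. ≥50% protection → retest; ≥50% again = moderately active; reproducible 100% = confirmed active.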

Row | Compound | EC50 [µM] | IC50 | outcome
1 | NC(CSSCC(N)C(=O)c1ccccc1)C(=O)c1ccccc1 (stereo not drawn) | > 200 | 9.77 µM | –
2 | COP(=O)(OC)C(N)Cc1c[nH]c2ccccc12 (stereo not drawn) | > 200 | > 200 µM | –
3 | O=S1(=O)CC2C1C1(c3ccccc3)OC2(c2ccccc2)c2ccccc21 (stereo not drawn) | > 200 | 20 µM | –
4 | CC1OC(OCC2OC(Oc3c(-c4ccc(O)cc4)oc4cc(O)cc(O)c4c3=O)C(OC3OCC(O)(CO)C3O)C(O)C2O)C(O)C(O)C1O (stereo not drawn) | > 347 | > 347 µM | –
5 | O=C1C=C2CC3c4[nH]c5ccccc5c4CCN3CC2CC1 (stereo not drawn) | > 85.1 | 43.7 µM | –
6 | C/C(=C\C=C\C(C)C)C1CCC(C)(NC=O)CC1 (stereo not drawn) | – | – | inactive
7 | CCO/C=C/c1cc2c(c3c1-c1c(cc(OC)c(OC)c1OC)C3=O)OCO2 | > 6.46 | > 6.46 µM | –
8 | C(=NCCCN1CCN(CCCN=Cc2cccc3ccccc23)CC1)c1cccc2ccccc12 | > 200 | 46.8 µM | –
9 | Cn1c(-c2ccccc2)cc(-c2ccc3c(c2)OCO3)c1-c1ccsc1 | > 200 | > 200 µM | –
10 | CCC12CCCN(Cc3ccccc3)C1c1c([nH]c3ccccc13)C(CO)C2 (stereo not drawn) | > 26.3 | > 26.3 µM | –
11 | CCN(CC)c1ccc2c(C)cc(=O)oc2c1 | > 219 | 105 µM | –
12 | Cc1cc(C)c2c(c1)C(=O)C1(C2)Cc2c(ccc(C)c2C)C1=O (stereo not drawn) | > 100 | > 100 µM | –
13 | CC(C)(C)OC(=O)N(CCCCNC(=O)c1ccccc1)CCCNC(=O)c1ccccc1 | > 200 | 45.7 µM | –
14 | C[C@]12CC[C@@H]3c4cc(OCC(F)(F)F)c(O)cc4C(=O)C[C@H]3[C@@H]1CC[C@@H]2O | > 200 | 3.02 µM | –
15 | O=C(OCc1ccccc1)N1CCN(C(=O)OCc2ccccc2)CCN(C(=O)OCc2ccccc2)CCN(C(=O)OCc2ccccc2)CCN(C(=O)OCc2ccccc2)CC1 | > 100 | > 100 µM | –
16 | O=[N+]([O-])c1cc(C(F)(F)F)ccc1S(=O)(=O)c1ccccc1 | > 77.6 | 3.89 µM and 1.26 µM | –
17 | CC(/C=C/c1ccccc1)=N\NC(=S)N/N=C(C)/C=C/c1ccccc1 | > 200 | 4.07 µM | –
18 | On1c(-c2ccccc2)nc2ccccc2c1=S | > 200 | 1.45 µM | –
19 | CC(C)CC(NC(=O)C(N)CSSCC(N)C(=O)NC(CC(C)C)C(=O)O)C(=O)O (stereo not drawn) (I: H-Cys-Leu-OH / II: H-Cys-Leu-OH; disulfide I:1-II:1; configuration not given here) | – | – | inactive
20 | COC(=O)c1cc2c(nc1C)-c1ccccc1OS2(=O)=O | – | – | inactive
21 | CN(C)c1c(-c2ccccc2)cc(-c2ccccc2)[nH]c1=O | > 64.6 | > 64.6 µM | –
22 | CC(C)CC(NC(=O)C(Cc1ccccc1)NC(=O)[C@H]1CC[C@H](NC(=O)C(Cc2ccc(OC(C)(C)C)cc2)NC(=O)OC(C)(C)C)C1)C(N)=O (stereo partly drawn) | – | – | inactive

Row | Compound | EC50 [µM] | IC50 | outcome
23 | C[C@]12CCC(=O)O[C@H]1CCCCO2 | > 200 | > 200 µM | –
24 | CCOC(=O)Cn1c2ccc(Br)cc2c2nc3ccccc3nc21 | > 100 | > 100 µM | –
25 | CC(C)C(OC(=O)c1ccc(NCC2=CC(=O)C=CC2=O)cc1)C(C)C | > 20 | 9.12 µM | –
26 | Cc1nc(C(N)=S)sc1C(=O)/C=C/c1c(O)ccc2ccccc12 | > 53.7 | 42.7 µM | –
27 | COC(=O)c1noc2c1CSC1=C2CS(=O)(=O)c2ccccc21 | > 200 | > 200 µM | –
28 | CCN(CC)CC(O)CN(CC(=O)Nc1c(C)cccc1C)CC(C)C (stereo not drawn) | > 200 | > 200 µM | –
29 | O=S(=O)(ON=C1C=CC(=NOS(=O)(=O)c2ccccc2)C=C1)c1ccccc1 | > 200 | 1.02 µM | –
30 | O=[N+]([O-])c1cc([As](=O)(O)O)ccc1S(=O)(=O)O | > 200 | > 200 µM | –
31 | CCc1cccc(CC)c1Nc1nc2c(s1)C(=O)c1ccccc1C2=O | > 200 | 33.1 µM | –
32 | CN(C)CCCNC(=O)CCNC(=O)c1cc(NC(=O)c2cc(NC(=O)c3cc(NC(=O)CCCNC(=O)c4cc(NC(=O)c5cc(NC(=O)c6nccn6C)cn5C)cn4C)cn3C)cn2C)cn1C | – | – | inactive
33 | CC(C)(C)Cc1cc(O)ccc1O | > 6.03 | 3.39 µM | –
34 | CC(C#N)N(CCc1ccccc1)C(=O)c1ccccc1 (stereo not drawn) | > 200 | > 200 µM | –
35 | N=C1C(=N)c2ccccc2-c2ccccc21.N=C1C(=N)c2ccccc2-c2ccccc21.[Cl-].[Rh+3].c1ccc(-c2ccccn2)nc1 | – | – | inactive
36 | CS/C(=N/N=C/c1ccc2ccccc2n1)SS/C(=N/N=C\c1ccc2ccccc2n1)SC | > 200 | 178 µM | –
37 | CC(C)=C1CC(C)(C)N=C1CCC1=NC(C)(C)CC1=C(C)C | > 50.1 | 28.2 µM | –
38 | CC(NC(=O)/C(=C/c1ccccc1)NC(=O)c1ccccc1)C(=O)O (stereo not drawn) | > 200 | > 200 µM | –
39 | CSC1=Nc2cc3c(cc2C(=O)N2C[C@H](O)CC12)OCO3 (stereo partly drawn) | > 200 | 110 µM | –
40 | NC(=O)CC(NC(=O)c1ccccc1SC(=O)CCCC[n+]1ccccc1)C(N)=O (stereo not drawn) | 32.4 | > 200 µM | –
41 | CCOC(=O)c1c[nH]c2cc(OCC3CC3)c(OCC3CC3)cc2c1=O | > 200 | > 200 µM | –
42 | C=C1C(C(=O)OC)[C@@]2(C)C(C(=O)OC)C(=O)C(C(=O)OC)[C@@]2(CCC)C1C(=O)OC (stereo partly drawn) | > 141 | 72.4 µM | –
43 | CC(C)(C)OC(=O)[C@H]1CCC(=S)N1Cc1ccccc1 | > 200 | > 200 µM | –
44 | COc1ccc2cc3[n+](cc2c1OC)CCc1cc(O)c(O)cc1-3 | – | – | inactive

Row | Compound | EC50 [µM] | IC50 | outcome
45 | N#C/C=C/c1cccc(F)c1 | > 49 | > 49 µM | –
46 | O=C(Cc1ccccc1)NN1C(=O)C(Cl)C1c1ccccc1O (stereo not drawn) | > 77.6 | 24.5 µM | –
47 | CC1CC2C3CC(F)C4=CC(=O)C=CC4(C)C3(F)C(O)CC2(C)C1(O)C(=O)COC(=O)C(C)(C)C (stereo not drawn) | – | – | inactive
48 | COc1cc(C(=O)/C=C/c2ccccc2O)ccc1O | > 132 | 102 µM | –
49 | O=c1cc(NCc2ccncc2)[nH]c(=O)[nH]1 | – | – | inactive
50 | CONC1CC(n2cc(C)c(=O)[nH]c2=O)OC1CO (stereo not drawn) | > 200 | > 200 µM | –
51 | CCCOc1cnc([C@H]2CCC3[C@@H]4CC=C5C[C@@H](O)CC[C@]5(C)C4CC[C@@]32C)s1 (stereo partly drawn) | > 60.3 | > 60.3 µM | –
52 | COc1ccc(-c2coc3cc(OC)cc(O)c3c2=O)cc1 | > 200 | > 200 µM | –
53 | CN(C)c1ccc2c3c(c(=O)oc2c1)CCC3 | > 79.4 | > 79.4 µM | –
54 | Clc1cccc(C2SCc3nc4ccccc4n32)c1 (stereo not drawn) | – | – | inactive
55 | CC1=NN2C(c3ccc(C)cc3)=CSC2=NC(C)(C)C1 | > 174 | 141 µM | –
56 | CN1C/C(=C\c2cccs2)c2[nH]c(=O)c(C#N)c(-c3cccs3)c2C1 | > 200 | > 200 µM | –
57 | CCC(CO)COC(=O)/C=C/C(=O)OCC(CC)CO (stereo not drawn) | – | – | inactive
58 | CC1(C)OP23(NC(=O)OC2(C(F)(F)F)c2ccccc2O3)OC1(C)C (stereo not drawn) | > 245 | > 245 µM | –
59 | CC(=O)O[C@H]1CCC2[C@@H]3CCC4Nc5[nH]ncc5C[C@]4(C)C3CC[C@@]21C (stereo partly drawn) | – | – | inactive
60 | Cc1cc2nc(C=C(C(F)(F)F)C(F)(F)F)sc2cc1C | > 20 | 3.63 µM | –
61 | CC(=O)Oc1ccn2nc(C)c(Cc3c(C)nn4ccc(OC(C)=O)cc34)c2c1 | > 200 | 28.2 µM | –
62 | N#Cc1c(=O)[nH]c(=O)n2c1[nH]c1ccccc12 | > 200 | > 200 µM | –
63 | OCCNCNc1nc(NCNCCO)nc(N(CNCCO)CNCCO)n1 | > 200 | 26.9 µM | –
64 | C=C=C(CC(CC=C(C)C)(C(C)=O)C(=O)OC(C)(C)C)S(=O)(=O)c1ccccc1 (stereo not drawn) | > 32.4 | 6.17 µM | –
65 | Cc1cccnc1NC(=S)Nc1ncccc1C | > 200 | 186 µM | –
66 | CC(C)CC(N)C(=O)NC(CC(=O)O)C(=O)NC(CCCCN)C(=O)NC(C)C(=O)NC(CO)C(=O)NC(Cc1ccc(O)cc1)C(=O)NC(CO)C(=O)NC(C(=O)O)C(C)O (stereo not drawn) (H-LDKASYST-OH; configuration not given here) | > 56.2 | > 56.2 µM | –

Row | Compound | EC50 [µM] | IC50 | outcome
67 | Cc1ccc2c(c1)S(=O)(=O)NC2=O | > 1260 | 1230 µM | –
68 | Cc1[nH]c2ccccc2c1CC/C(=N\Nc1ccccc1)c1ccccc1 | – | – | inactive
69 | COc1cc2c3c(c1)nc(C)n3C(=O)CS2 | > 200 | > 200 µM | –
70 | O=C(O)c1ccc2c(c1)C(=O)N(c1ccc(S(=O)(=O)c3ccc(N4C(=O)c5ccc(C(=O)O)cc5C4=O)cc3)cc1)C2=O | – | – | inactive
71 | O=C1C2=C(c3ccccc31)C(c1ccccc1Cl)N1C(=O)CCSC1=N2 (stereo not drawn) | > 26.3 | > 26.3 µM | –
72 | CCN(CC)CC(=O)Nc1ccc(C(=O)OCC(C)C)cc1 | > 200 | 26.9 µM | –
73 | O=S(=O)(N/N=C/c1c(Cl)cccc1Cl)c1ccccc1 | – | – | inactive
74 | CC1C2(C)OC(=N)C(C#N)(C(c3ccccc3)O2)C1(C#N)C#N (stereo not drawn) | > 200 | 10.7 µM | –
75 | CCOP(=O)(OCC)c1cc2cc(O)ccc2oc1=O | > 200 | > 200 µM | –
76 | O=C1Cn2nc(C(=O)c3ccccc3C#Cc3ccccc3)c(-c3ccccc3)c2-c2ccccc21 | > 38.9 | > 38.9 µM | –
77 | CCN(CCCCOC(=O)c1ccc(OC)c(OC)c1)C(C)Cc1ccc(OC)cc1 (stereo not drawn) | > 200 | 102 µM | –
78 | O=C1OCC2C1C1c3ccccc3C(O)c3ccccc3C21 (stereo not drawn) | – | – | inactive
79 | O=C1C(CN2CCCC2)CCC1CN1CCCC1 (stereo not drawn) | – | – | inactive
80 | COc1cc2cc3cc(-c4ccc(Cl)cc4)c(N4CCN(C)CC4)nc3nc2cc1OC | > 39.8 | 6.61 µM | –
81 | CCCCCCCCCCCc1c(O)c(O)cc2nc3cc(C(=O)NC(C(=O)O)C(C)C)ccc3nc12 (stereo not drawn) | > 14.1 | > 14.1 µM | –
82 | COc1cccc(C2C(C(=O)Nc3cc(=O)n(C)c(=O)n3C)=C(C)NC(C)=C2C(=O)Nc2cc(=O)n(C)c(=O)n2C)c1O | > 219 | 74.1 µM | –
83 | CC(C)(C)N1C(=O)N=[N+](/C(=C(\c2ccccc2)n2nc([O-])n(C(C)(C)C)c2=O)c2ccccc2)C1=O | > 100 | > 100 µM | –
84 | O=C(NNC1=NCCN1)c1ccco1 | > 200 | > 200 µM | –
85 | CC1=NOC(C)(O)/C1=N/O (stereo not drawn) | > 200 | 158 µM | –
